Experimental data from PubChem BioAssay AID2060883 (Molecular Pharmacology Branch, DTP, NCI, 2025).

Test system: 843782-103-R-J1-PDC complex spheroid viability
Assay: Anticancer human tumor 843782-103-R-J1-PDC patient-derived lung adenocarcinoma cell line growth inhibition [RAS]
Settings: for IC50: curve of first compound; for viability, T/C: stronger effect = lower value
Source text: RAS pathway inhibitors in Combinations in Complex Spheroids
A high-throughput screen of multi-cell type tumor spheroids was designed to identify active combinations of RAS pathway inhibitors and targeted small molecules. Complex spheroids include a stromal component modeled by human endothelial cells (HUVEC) and fibroblasts modeled by human mesenchymal stem cells (MSCs). The concentration ranges selected for each drug and investigational agent were based upon clinically achievable concentrations if the clinical Cmax of the agent was known.
Compounds. The drugs and investigational agents: abemaciclib (NSC768073), cobimetinib (NSC768068), divarasib (GDC6063, NSC841802), docetaxel (NSC628503), GDC-1971 (RLY-1971, NSC841576), gemcitabine (NSC613327), inavolisib (NSC800729), ipatasertib (NSC767898), KB-0742 (NSC834161), MRTX-1133 (NSC836407), osimertinib (NSC779217), RMC-4630 (NSC839698), RMC-6236 (NSC851965), RMC-6291 (NSC852671), Ro-3306 (NSC812927), sapanisertib (NSC764658), SN-38 (NSC673596), staurosporine (NSC755774), SY5609 (NSC837396), and tovorafenib (DAY101, NSC766906), were obtained from the National Cancer Institute (NCI) Developmental Therapeutics Program Chemical Repository. The FDA-approved anticancer drug set is available from the NCI Developmental Therapeutics Program. […] The stock solutions were prepared in dimethyl sulfoxide (DMSO, Sigma-Aldrich, St. Louis, MO, cat. D2650) at 800-fold the tested concentration and stored at -70 degrees C prior to their use. All drugs and investigational agents were tested over a range starting from a high concentration at or near the clinical Cmax and decreasing in half-log increments. If the clinical Cmax for an agent had not been determined, the highest concentration tested was 10 microM.
Cell Culture. All cells were maintained in an incubator at 37 degrees C and 5% CO2 with 95% humidity. The PDC lines were cultured according to standard operating procedures established by the NCI PDMR. All PDCs were thawed and cultured in Matrigel-coated flasks prepared with a working solution of 1X Ham's F-12 nutrient mix, without supplementation (Invitrogen, Waltham, MA, cat. 11765054), 100 U/mL penicillin-streptomycin (Invitrogen, cat. 15140122), and 2.5% Matrigel (Corning Inc., Corning, NY, cat. 354248) for the first three passages. The 362531-283-R-J2-PDC and 782815-120-R-J1-PDC lines were cultured in 6C/Colon 1B media, which includes advanced DMEM/F-12 (Thermo Fisher Scientific, cat. 12634028), 10 mM HEPES (Thermo Fisher Scientific, cat. 15630080), 1X GlutaMAX supplement (Thermo Fisher Scientific, cat. 35050061), 0.1 mg/mL primocin (InvivoGen, San Diego, CA, cat. ant-pm-2), 10% defined fetal bovine serum, heat inactivated (HyClone Laboratories Inc., Logan, UT, cat. SH30070.03HI), 50% L-WRN conditioned media (ATCC, cat. CRL-3276), 1.25 mM N-Acetyl-L-cysteine (Sigma-Aldrich, cat. A9165), 10 mM nicotinamide (Sigma-Aldrich, cat. N0636), 1X B-27 supplement (Thermo Fisher Scientific, cat. 17504044), 1X N-2 supplement (Thermo Fisher Scientific, cat. 17502048), 50 ng/mL human EGF (Thermo Fisher Scientific, cat. PHG0311), and 10 microM Y-27632 dihydrochloride (Tocris Bioscience, cat. 1254). The K12877-001-R-J1-PDC line was cultured in 6I media, which includes all 6C/Colon 1B media plus 10 ng/mL human FGF-10 (PeproTech, cat. 100-26), 1 ng/mL human FGF-2 (PeproTech, cat. 100-18B), 1 µM prostaglandin E2 (Tocris Bioscience, cat. 2296), […] hydrocortisone (Sigma-Aldrich, cat. H4001), and […] bovine insulin (Sigma-Aldrich, cat. I6634). The K86415-001-R-J1-PDC line was cultured in 6D media, which includes all 6C/Colon 1B media components minus the L-WRN conditioned media. The 485176-168-R4-J1-PDC was cultured in PANC media, which includes all 6C/Colon 1B media plus 100 ng/mL human FGF-10 (PeproTech, cat. 100-26), 500 nM SB-431542 (Selleckchem, cat. S1067), and 10 nM gastrin (Tocris Bioscience, cat. 3006). […]

[1] = second compound 0.0316 µM, first compound 0.0316 µM
[2] = second compound 0.0316 µM, first compound 0.1 µM
[3] = second compound 0.0316 µM, first compound 0.316 µM
[4] = second compound 0.0316 µM, first compound 1 µM
[5] = second compound 0.1 µM, first compound 0.0316 µM
[6] = second compound 0.1 µM, first compound 0.1 µM
[7] = second compound 0.1 µM, first compound 0.316 µM
[8] = second compound 0.1 µM, first compound 1 µM
[9] = second compound 0.316 µM, first compound 0.0316 µM
[10] = second compound 0.316 µM, first compound 0.1 µM
[11] = second compound 0.316 µM, first compound 0.316 µM
[12] = second compound 0.316 µM, first compound 1 µM
[13] = second compound 1 µM, first compound 0.0316 µM
[14] = second compound 1 µM, first compound 0.1 µM
[15] = second compound 1 µM, first compound 0.316 µM
[16] = second compound 1 µM, first compound 1 µM
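Note: viability read after seven days of compound exposure.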

`CC1(O)CCCC1n1c(=O)c(C(F)F)cc2cnc(NC3CCN(S(C)(=O)=O)CC3)nc21` (configuration not stated) + C=CC(=O)N1CCN(c2nc(OCC3CCCN3C)nc3c(F)c(-c4nc(N)cc(C)c4C(F)(F)F)c(Cl)cc23)C(C)C1 was tested, and the IC50 (second compound 0.00316 µM) was 0.147 µM, the IC50 (second compound 0.01 µM) was 0.152 µM and the IC50 (second compound 0.0316 µM) was 0.0964 µM. For the same compound, the IC50 (second compound 0.1 µM) was 0.126 µM, the IC50 (second compound 0.316 µM) was 0.14 µM and the IC50 (second compound 1 µM) was 0.138 µM. It also gave a viability, T/C (second compound 0.00316 µM, first compound 0.0316 µM) of 84.9%, a viability, T/C (second compound 0.00316 µM, first compound 0.1 µM) of 61.6% and a viability, T/C (second compound 0.00316 µM, first compound 0.316 µM) of 27.7%. It also gave a viability, T/C (second compound 0.00316 µM, first compound 1 µM) of 24.3%, a viability, T/C (second compound 0.00316 µM, first compound 3.16 µM) of 24.2% and a viability, T/C (second compound 0.00316 µM, first compound 10 µM) of 2.56%. The viability, T/C (second compound 0.01 µM, first compound 0.0316 µM) was 81.2%, the viability, T/C (second compound 0.01 µM, first compound 0.1 µM) was 61.4% and the viability, T/C (second compound 0.01 µM, first compound 0.316 µM) was 28.2%. It also gave a viability, T/C (second compound 0.01 µM, first compound 1 µM) of 29.2%, a viability, T/C (second compound 0.01 µM, first compound 3.16 µM) of 21.7% and a viability, T/C (second compound 0.01 µM, first compound 10 µM) of 3.18%. The viability, T/C [1] was 75.9%, the viability, T/C [2] was 49.9% and the viability, T/C [3] was 24%. The viability, T/C [4] was 27.5%, the viability, T/C (second compound 0.0316 µM, first compound 3.16 µM) was 19.6% and the viability, T/C (second compound 0.0316 µM, first compound 10 µM) was 2.81%. For the same compound, the viability, T/C [5] was 78.7%, the viability, T/C [6] was 59.2% and the viability, T/C [7] was 24.4%. For the same compound, the viability, T/C [8] was 27.2%, the viability, T/C (second compound 0.1 µM, first compound 3.16 µM) was 23% and the viability, T/C (second compound 0.1 µM, first compound 10 µM) was 2.61%. The viability, T/C [9] was 86%, the viability, T/C [10] was 58.8% and the viability, T/C [11] was 26.2%. For the same compound, the viability, T/C [12] was 28.5%, the viability, T/C (second compound 0.316 µM, first compound 3.16 µM) was 25.2% and the viability, T/C (second compound 0.316 µM, first compound 10 µM) was 2.69%. The viability, T/C [13] was 84.1%, the viability, T/C [14] was 54.1% and the viability, T/C [15] was 33.1%. For the same compound, the viability, T/C [16] was 25.1%, the viability, T/C (second compound 1 µM, first compound 3.16 µM) was 17.2% and the viability, T/C (second compound 1 µM, first compound 10 µM) was 2.07%.
In the case of `Cc1nc(N2CCC3(CC2)COC(C)C3N)c(CO)nc1Sc1ccnc(N)c1Cl` (configuration not stated), the viability, T/C (compound 0.0316 µM) is reported as 105% [middle of 4 runs], the viability, T/C (compound 3.16 µM) is reported as 64.6% [middle of 4 runs] and the viability, T/C (compound 10 µM) is reported as 49% [middle of 4 runs].
`CCN1CCN(Cc2ccc(Nc3ncc(F)c(-c4cc(F)c5nc(C)n(C(C)C)c5c4)n3)nc2)CC1` + C#Cc1c(F)ccc2cc(O)cc(-c3ncc4c(N5CC6CCC(C5)N6)nc(OCC56CCCN5CC(F)C6)nc4c3F)c12 was tested, and the IC50 (second compound 0.0316 µM) was over 1 µM, the IC50 (second compound 0.1 µM) was over 1 µM and the IC50 (second compound 0.316 µM) was over 1 µM. It also gave an IC50 (second compound 1 µM) of 0.905 µM, an IC50 (second compound 3.16 µM) of 0.415 µM and an IC50 (second compound 10 µM) of 0.0767 µM. For the same compound, the viability, T/C (second compound 0.0316 µM, first compound 0.00316 µM) was 108%, the viability, T/C (second compound 0.0316 µM, first compound 0.01 µM) was 93% and the viability, T/C [1] was 101%. For the same compound, the viability, T/C [2] was 105%, the viability, T/C [3] was 101% and the viability, T/C [4] was 71%. It also gave a viability, T/C (second compound 0.1 µM, first compound 0.00316 µM) of 107%, a viability, T/C (second compound 0.1 µM, first compound 0.01 µM) of 104% and a viability, T/C [5] of 93.3%. It also gave a viability, T/C [6] of 97.3%, a viability, T/C [7] of 97.1% and a viability, T/C [8] of 75%. For the same compound, the viability, T/C (second compound 0.316 µM, first compound 0.00316 µM) was 107%, the viability, T/C (second compound 0.316 µM, first compound 0.01 µM) was 101% and the viability, T/C [9] was 103%. It also gave a viability, T/C [10] of 99.3%, a viability, T/C [11] of 86.7% and a viability, T/C [12] of 65%. It also gave a viability, T/C (second compound 1 µM, first compound 0.00316 µM) of 105%, a viability, T/C (second compound 1 µM, first compound 0.01 µM) of 92.6% and a viability, T/C [13] of 93.9%. For the same compound, the viability, T/C [14] was 89.5%, the viability, T/C [15] was 75.9% and the viability, T/C [16] was 46.9%. It also gave a viability, T/C (second compound 3.16 µM, first compound 0.00316 µM) of 87.2%, a viability, T/C (second compound 3.16 µM, first compound 0.01 µM) of 88.6% and a viability, T/C (second compound 3.16 µM, first compound 0.0316 µM) of 79.5%. For the same compound, the viability, T/C (second compound 3.16 µM, first compound 0.1 µM) was 69.4%, the viability, T/C (second compound 3.16 µM, first compound 0.316 µM) was 53.1% and the viability, T/C (second compound 3.16 µM, first compound 1 µM) was 40%. The viability, T/C (second compound 10 µM, first compound 0.00316 µM) was 67%, the viability, T/C (second compound 10 µM, first compound 0.01 µM) was 60.9% and the viability, T/C (second compound 10 µM, first compound 0.0316 µM) was 57.6%. The viability, T/C (second compound 10 µM, first compound 0.1 µM) was 46.2%, the viability, T/C (second compound 10 µM, first compound 0.316 µM) was 40.6% and the viability, T/C (second compound 10 µM, first compound 1 µM) was 26.6%.
